# Data from patent US20230349907A1, “BIOPROBES FOR LYSYL OXIDASES AND USES THEREOF” (Pharmaxis Ltd., priority 2020, published 2023).
# Structures can show the parent of a compound that is named as a salt.
# Assays:
# [1] = biological target: Bovine LOX (Bos taurus (Bovine), UniProt P33072); assay: LOX inhibition, peroxidase-coupled Amplex Red assay; type: biochemical; settings: 30 min preincubation at 37° C.
# Text: (§1) Method to Determine the Ability of Compounds of the Invention to Inhibit LOX and LOXL1-4 from Different Sources […] S., Trackman P. C. and Kagan H. M., Reaction of aortic lysyl oxidase with beta-aminoproprionitrile. J Biol Chem 1983; 258: 4331-4338). There are five LOX family members; these are LOX, LOXL1, LOXL2, LOXL3 and LOXL4. LOX and LOXL family members can be acquired as recombinant active proteins from commercial sources, or extracted from animal tissues like bovine aorta, tendons, pig skin; or prepared from cell cultures. The inhibitory effects of the compounds of the present invention were tested against the given LOX-LOXL preparation using a high-throughput coupled colorimetric method (Holt A. and Palcic M., A peroxidase-coupled continuous absorbance plate-reader assay for flavin monoamine oxidases, copper-containing amine oxidases and related enzymes. Nat. Protoc. 2006; 1: 2498-2505). The assay was developed using either 384 or 96 well format. […] Test compounds were dissolved in DMSO and tested in a Concentration Response Curve (CRC) with 11 data points, typically in the micromolar or nanomolar range after incubation with the enzyme for 30 min at 37° C. 25 μL of a reaction mixture containing twice the KM concentration of putrescine (Sigma Aldrich, e.g. 20 mM for LOX, or 10 mM for LOXL2 and LOXL3), 120 μM Amplex Red (Sigma Aldrich) and 1.5 U/mL horseradish peroxidase (Sigma Aldrich) prepared in 1.2 M urea, 50 mM sodium borate buffer (pH 8.2) were then added to the corresponding wells. The above volumes were doubled in the case of 96 well plates. The fluorescence (RFU) was read every 2.5 m n for 30 m u […], excitation 565 nm and emission 590 nm (Optima; BMG labtech). The slope of the kinetics for each well was calculated using MARS data analysis software (BMG labtech) and this value was used to deduce the IC50 value (Dotmatics).
# [2] = biological target: rhLOXL2 (Homo sapiens (Human), UniProt Q9Y4K0); assay: LOXL2 inhibition, peroxidase-coupled Amplex Red assay; type: biochemical; settings: 30 min preincubation at 37° C.
# Text: as §1
# Chain of rhLOXL2 (Q9Y4K0 26-774): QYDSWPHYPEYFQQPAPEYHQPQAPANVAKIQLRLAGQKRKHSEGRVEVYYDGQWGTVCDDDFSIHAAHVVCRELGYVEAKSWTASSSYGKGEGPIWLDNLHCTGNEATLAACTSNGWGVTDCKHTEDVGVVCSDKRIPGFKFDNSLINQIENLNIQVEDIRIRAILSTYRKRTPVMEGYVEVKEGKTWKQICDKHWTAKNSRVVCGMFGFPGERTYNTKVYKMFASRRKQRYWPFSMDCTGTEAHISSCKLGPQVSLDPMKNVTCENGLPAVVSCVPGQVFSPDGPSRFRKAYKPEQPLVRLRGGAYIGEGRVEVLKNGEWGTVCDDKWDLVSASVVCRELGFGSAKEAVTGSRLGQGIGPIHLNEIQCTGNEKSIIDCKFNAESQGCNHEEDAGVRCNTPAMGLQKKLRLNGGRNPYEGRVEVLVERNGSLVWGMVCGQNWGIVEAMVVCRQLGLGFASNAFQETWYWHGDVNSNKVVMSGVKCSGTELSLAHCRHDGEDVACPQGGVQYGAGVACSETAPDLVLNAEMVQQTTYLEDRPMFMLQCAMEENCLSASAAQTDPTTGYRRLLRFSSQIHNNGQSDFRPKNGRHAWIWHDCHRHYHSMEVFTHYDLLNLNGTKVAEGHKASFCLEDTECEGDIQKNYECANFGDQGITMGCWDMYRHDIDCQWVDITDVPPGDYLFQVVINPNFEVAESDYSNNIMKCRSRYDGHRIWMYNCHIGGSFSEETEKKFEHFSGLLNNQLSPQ
# Chain of Bovine LOX (P33072 170-418): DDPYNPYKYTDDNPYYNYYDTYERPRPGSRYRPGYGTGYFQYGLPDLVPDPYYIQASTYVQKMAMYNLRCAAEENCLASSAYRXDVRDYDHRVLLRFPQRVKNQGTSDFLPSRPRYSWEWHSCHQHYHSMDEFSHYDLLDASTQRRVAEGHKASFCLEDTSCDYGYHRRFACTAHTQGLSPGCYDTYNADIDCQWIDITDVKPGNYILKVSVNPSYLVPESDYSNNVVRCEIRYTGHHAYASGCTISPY
IC50 [1],IC50 [2],Structure (SMILES)
> 0.3 µM,> 0.3 µM,"NC/C=C(\F)CS(=O)(=O)c1cccc(N(CCCc2cn(CCCCC[C@@H]3SC[C@@H]4NC(=O)N[C@@H]43)nn2)CCCc2cn(CCCCC[C@@H]3SC[C@@H]4NC(=O)N[C@@H]43)nn2)c1 [Compound 1-13, (3aS,3a'S,4S,4'S,6aR,6a′R)-4,4′-(((((3-(((Z)-4-amino-2-fluorobut-2-en-1-yl)sulfonyl)phenyl)azanediyl)bis(propane-3,1-diyl))bis(1H-1,2,3-triazole-4,1-diyl))bis(pentane-5,1-diyl))bis(tetrahydro-1H-thieno[3,4-d]imidazol-2(3H)-one) hydrochloride]"
> 0.3 µM,> 0.3 µM,"NC/C=C(\F)CS(=O)(=O)c1cccc(NCCCc2cn(CCCCC[C@@H]3SC[C@@H]4NC(=O)N[C@@H]43)nn2)c1 [Compound 1-14, hydrochloride]"
> 0.3 µM,< 0.3 µM,"NC/C=C(\F)CS(=O)(=O)c1cccc(OCCCc2cn(CCCCC[C@@H]3SC[C@@H]4NC(=O)N[C@@H]43)nn2)c1 [Compound 1-11, (3aS,4S,6aR)-4-(5-(4-(3-(3-(((Z)-4-amino-2-fluorobut-2-en-1-yl)sulfonyl)phenoxy)propyl)-1H-1,2,3-triazol-1-yl)pentyl)tetrahydro-1H-thieno[3,4-d]imidazol-2(3H)-one hydrochloride]"
> 0.3 µM,< 0.3 µM,"CN(C)S(=O)(=O)c1ccc(C(OCc2ccc(-n3cc(CNC(=O)CCOCCOCCOCCOCCNC(=O)CCCC[C@@H]4SC[C@@H]5NC(=O)N[C@@H]54)nn3)cc2)c2cn(C/C(F)=C/CN)nn2)cc1 (stereo partly drawn) [Compound 1-16, N-((1-(4-(((1-((Z)-4-amino-2-fluorobut-2-en-1-yl)-1H-1,2,3-triazol-4-yl)(4-(N,N-dimethylsulfamoyl)phenyl)methoxy)methyl)phenyl)-1H-1,2,3-triazol-4-yl)methyl)-1-(5-((3aS,4S,6aR)-2-oxohexahydro-1H-thieno[3,4-d]imidazol-4-yl)pentanamido)-3,6,9,12-tetraoxapentadecan-15-amide hydrochloride]"

# More lines, now with the values behind:
Structure (SMILES),IC50 [1],IC50 [2]
"Cc1c(-c2cccc(S(=O)(=O)N(C)C)c2)c2cc(C(=O)Nc3ccc4c(c3)n(Cc3cn(CCOCCOCCOCCNC(=O)CCCC[C@@H]5SC[C@@H]6NC(=O)N[C@@H]65)nn3)c(=O)n4Cc3cn(CCOCCOCCOCCNC(=O)CCCC[C@@H]4SC[C@@H]5NC(=O)N[C@@H]54)nn3)ccc2n1C/C(F)=C/CN [Compound 1-3, hydrochloride]",> 0.3 µM,< 0.3 µM
"Cc1c(-c2cccc(S(=O)(=O)N(C)C)c2)c2cc(C(=O)NCCCCCNC(=O)CCCC[C@@H]3SC[C@@H]4NC(=O)N[C@@H]43)ccc2n1C/C(F)=C/CN [Compound 1-2, 1-((Z)-4-amino-2-fluorobut-2-en-1-yl)-3-(3-(N,N-dimethylsulfamoyl)phenyl)-2-methyl-N-(5-(5-((3aS,4S,6aR)-2-oxohexahydro-1H-thieno[3,4-d]imidazol-4-yl)pentanamido)pentyl)-1H-indole-5-carboxamide]",> 0.3 µM,< 0.3 µM
"Cc1c(-c2cccc(S(=O)(=O)N(C)C)c2)c2cc(-c3cn(-c4cc(C(=O)NCCCCCNC(=O)CCCC[C@@H]5SC[C@@H]6NC(=O)N[C@@H]65)cc(C(=O)NCCCCCNC(=O)CCCC[C@@H]5SC[C@@H]6NC(=O)N[C@@H]65)c4)nn3)ccc2n1C/C(F)=C/CN [Compound 1-6, 5-(4-(1-((Z)-4-amino-2-fluorobut-2-en-1-yl)-3-(3-(N,N-dimethylsulfamoyl)phenyl)-2-methyl-1H-indol-5-yl)-1H-1,2,3-triazol-1-yl)-N^1,N^3-bis(5-(5-((3aS,4S,6aR)-2-oxohexahydro-1H-thieno[3,4-d]imidazol-4-yl)pentanamido)pentyl)isophthalamide hydrochloride]",> 0.3 µM,< 0.3 µM
"Cc1c(-c2cccc(S(=O)(=O)N(C)C)c2)c2cc(C(=O)Nc3ccc4c(c3)n(CCn3cc(CCNC(=O)CCCC[C@@H]5SC[C@@H]6NC(=O)N[C@@H]65)nn3)c(=O)n4CCn3cc(CCNC(=O)CCCC[C@@H]4SC[C@@H]5NC(=O)N[C@@H]54)nn3)ccc2n1C/C(F)=C/CN [Compound 1-4, N,N′-((((5-(1-((Z)-4-amino-2-fluorobut-2-en-1-yl)-3-(3-(N,N-dimethylsulfamoyl)phenyl)-2-methyl-1H-indole-5-carboxamido)-2-oxo-1H-benzo[d]imidazole-1,3(2H)-diyl)bis(ethane-2,1-diyl))bis(1H-1,2,3-triazole-1,4-diyl))bis(ethane-2,1-diyl))bis(5-((3aS,4S,6aR)-2-oxohexahydro-1H-thieno[3,4-d]imidazol-4-yl)pentanamide) hydrochloride]",> 0.3 µM,< 0.3 µM
"NC/C=C(\F)CS(=O)(=O)c1ccc(C(=O)NCc2cn(CCOCCOCCOCCNC(=O)CCCC[C@@H]3SC[C@@H]4NC(=O)N[C@@H]43)nn2)cc1 [Compound 1-7, 4-(((Z)-4-amino-2-fluorobut-2-en-1-yl)sulfonyl)-N-((1-(13-oxo-17-((3aS,4S,6aR)-2-oxohexahydro-1H-thieno[3,4-d]imidazol-4-yl)-3,6,9-trioxa-12-azaheptadecyl)-1H-1,2,3-triazol-4-yl)methyl)benzamide hydrochloride]",> 0.3 µM,> 0.3 µM
"NC/C=C(\F)CS(=O)(=O)c1ccccc1C(=O)NCCCCCNC(=O)CCCC[C@@H]1SC[C@@H]2NC(=O)N[C@@H]21 [Compound 1-8, 2-(((Z)-4-amino-2-fluorobut-2-en-1-yl)sulfonyl)-N-(5-(5-((3aS,4S,6aR)-2-oxohexahydro-1H-thieno[3,4-d]imidazol-4-yl)pentanamido)pentyl)benzamide hydrochloride]",> 0.3 µM,> 0.3 µM
"NC/C=C(\F)CS(=O)(=O)c1cccc(C(=O)NCCCCCNC(=O)CCCC[C@@H]2SC[C@@H]3NC(=O)N[C@@H]32)c1 [Compound 1-9, 3-(((Z)-4-amino-2-fluorobut-2-en-1-yl)sulfonyl)-N-(5-(5-((3aS,4S,6aR)-2-oxohexahydro-1H-thieno[3,4-d]imidazol-4-yl)pentanamido)pentyl)benzamide hydrochloride]",> 0.3 µM,> 0.3 µM
"NC/C=C(\F)CS(=O)(=O)c1cccc(C(=O)Nc2cc(C(=O)N3CCN(C(=O)CCCC[C@@H]4SC[C@@H]5NC(=O)N[C@@H]54)CC3)cc(C(=O)N3CCN(C(=O)CCCC[C@@H]4SC[C@@H]5NC(=O)N[C@@H]54)CC3)c2)c1 [Compound 1-10, 3-(((Z)-4-amino-2-fluorobut-2-en-1-yl)sulfonyl)-N-(3,5-bis(4-(5-((3aS,4S,6aR)-2-oxohexahydro-1H-thieno[3,4-d]imidazol-4-yl)pentanoyl)piperazine-1-carbonyl)phenyl)benzamide hydrochloride]",> 0.3 µM,> 0.3 µM
"Cc1c(-c2cccc(S(=O)(=O)N(C)C)c2)c2cc(C(=O)Nc3cc(C(=O)NCCCCCNC(=O)CCCC[C@@H]4SC[C@@H]5NC(=O)N[C@@H]54)cc(C(=O)NCCCCCNC(=O)CCCC[C@@H]4SC[C@@H]5NC(=O)N[C@@H]54)c3)ccc2n1C/C(F)=C/CN [Compound 1-5, 5-(1-((Z)-4-amino-2-fluorobut-2-en-1-yl)-3-(3-(N,N-dimethylsulfamoyl)phenyl)-2-methyl-1H-indole-5-carboxamido)-N^1,N^3-bis(5-(5-((3aS,4S,6aR)-2-oxohexahydro-1H-thieno[3,4-d]imidazol-4-yl)pentanamido)pentyl)isophthalamide hydrochloride]",> 0.3 µM,< 0.3 µM
